Laboratory results: PubChem BioAssay AID504473 (NMMLSC, 2011)
Calls of active or inactive are those of the source.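 The calls were made as follows: active = GFP ratio to DMSO above 1.5 or below 0.66; inactive = the rest.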

What was measured:
Assay in all cases: expression changes of rapamycin-responsive GFP fusion proteins, S. cerevisiae, GFP-tagged clone panel, flow cytometry (AID 504473);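 also: median GFP fluorescence of the cells measured by high-throughput flow cytometry; test concentration not given here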
[1] = system: YNL214W; settings: S. cerevisiae GFP-tagged strains, 3 h
[2] = system: YER081W; settings: S. cerevisiae GFP-tagged strains, 3 h
[3] = system: YHR144C; settings: S. cerevisiae GFP-tagged strains, 3 h
[4] = system: YGR121C; settings: S. cerevisiae GFP-tagged strains, 3 h
[5] = system: YKR093W; settings: S. cerevisiae GFP-tagged strains, 3 h
[6] = system: YMR251W-A; settings: S. cerevisiae GFP-tagged strains, 3 h
[7] = system: YDL130W; settings: S. cerevisiae GFP-tagged strains, 3 h
[8] = system: YBL087C; settings: S. cerevisiae GFP-tagged strains, 3 h
[9] = system: YPL131W; settings: S. cerevisiae GFP-tagged strains, 3 h
[10] = system: YIL066C; settings: S. cerevisiae GFP-tagged strains, 3 h
[11] = system: YEL007W; settings: S. cerevisiae GFP-tagged strains, 3 h
[12] = system: YOR182C; settings: S. cerevisiae GFP-tagged strains, 3 h
[13] = system: YDR070C; settings: S. cerevisiae GFP-tagged strains, 3 h
[14] = system: YAL061W; settings: S. cerevisiae GFP-tagged strains, 3 h
[15] = system: YKL119C; settings: S. cerevisiae GFP-tagged strains, 3 h
[16] = system: YPL111W; settings: S. cerevisiae GFP-tagged strains, 3 h
[17] = system: YOR063W; settings: S. cerevisiae GFP-tagged strains, 3 h
[18] = system: YOL052C-A; settings: S. cerevisiae GFP-tagged strains, 3 h
[19] = system: YLR058C; settings: S. cerevisiae GFP-tagged strains, 3 h
[20] = system: YNL142W; settings: S. cerevisiae GFP-tagged strains, 3 h
[21] = system: YKL086W; settings: S. cerevisiae GFP-tagged strains, 3 h
[22] = system: YPL265W; settings: S. cerevisiae GFP-tagged strains, 3 h
[23] = system: YKR039W; settings: S. cerevisiae GFP-tagged strains, 3 h
[24] = system: YMR120C; settings: S. cerevisiae GFP-tagged strains, 3 h
[25] = system: YBR139W; settings: S. cerevisiae GFP-tagged strains, 3 h
[26] = system: YER156C; settings: S. cerevisiae GFP-tagged strains, 3 h
[27] = system: YNR001C; settings: S. cerevisiae GFP-tagged strains, 3 h
[28] = system: YLR237W; settings: S. cerevisiae GFP-tagged strains, 3 h
[29] = system: YDL204W; settings: S. cerevisiae GFP-tagged strains, 3 h
[30] = system: YML026C; settings: S. cerevisiae GFP-tagged strains, 3 h
[31] = system: YPL150W; settings: S. cerevisiae GFP-tagged strains, 3 h
[32] = system: YIL052C; settings: S. cerevisiae GFP-tagged strains, 3 h
[33] = system: YEL071W; settings: S. cerevisiae GFP-tagged strains, 3 h
[34] = system: YJR148W; settings: S. cerevisiae GFP-tagged strains, 3 h
[35] = system: YML063W; settings: S. cerevisiae GFP-tagged strains, 3 h
[36] = system: YNL112W; settings: S. cerevisiae GFP-tagged strains, 3 h
[37] = system: YAL060W; settings: S. cerevisiae GFP-tagged strains, 3 h
[38] = system: YPR145W; settings: S. cerevisiae GFP-tagged strains, 3 h
[39] = system: YGL135W; settings: S. cerevisiae GFP-tagged strains, 3 h
[40] = system: YER117W; settings: S. cerevisiae GFP-tagged strains, 3 h
[41] = system: YOR173W; settings: S. cerevisiae GFP-tagged strains, 3 h
[42] = system: YIL043C; settings: S. cerevisiae GFP-tagged strains, 3 h
[43] = system: YDR382W; settings: S. cerevisiae GFP-tagged strains, 3 h
[44] = system: YHR203C; settings: S. cerevisiae GFP-tagged strains, 3 h
[45] = system: YLR142W; settings: S. cerevisiae GFP-tagged strains, 3 h
[46] = system: YKL103C; settings: S. cerevisiae GFP-tagged strains, 3 h
[47] = system: YFR031C-A; settings: S. cerevisiae GFP-tagged strains, 3 h
[48] = system: YHR141C; settings: S. cerevisiae GFP-tagged strains, 3 h
[49] = system: YNL015W; settings: S. cerevisiae GFP-tagged strains, 3 h
[50] = system: YCR002C; settings: S. cerevisiae GFP-tagged strains, 3 h
[51] = system: YEL060C; settings: S. cerevisiae GFP-tagged strains, 3 h
[52] = system: YER151C; settings: S. cerevisiae GFP-tagged strains, 3 h
[53] = system: YLR109W; settings: S. cerevisiae GFP-tagged strains, 3 h
[54] = system: YHR018C; settings: S. cerevisiae GFP-tagged strains, 3 h
[55] = system: YMR307W; settings: S. cerevisiae GFP-tagged strains, 3 h
[56] = system: YDL205C; settings: S. cerevisiae GFP-tagged strains, 3 h
[57] = system: YJL056C; settings: S. cerevisiae GFP-tagged strains, 3 h
[58] = system: YMR105C; settings: S. cerevisiae GFP-tagged strains, 3 h
[59] = system: YBR072W; settings: S. cerevisiae GFP-tagged strains, 3 h
[60] = system: YPR132W; settings: S. cerevisiae GFP-tagged strains, 3 h
[61] = system: YLR185W; settings: S. cerevisiae GFP-tagged strains, 3 h
[62] = system: YML034W; settings: S. cerevisiae GFP-tagged strains, 3 h
[63] = system: YGL062W; settings: S. cerevisiae GFP-tagged strains, 3 h
[64] = system: YOR371C; settings: S. cerevisiae GFP-tagged strains, 3 h
[65] = system: YGR088W; settings: S. cerevisiae GFP-tagged strains, 3 h
[66] = system: YLR367W; settings: S. cerevisiae GFP-tagged strains, 3 h
[67] = system: YNL068C; settings: S. cerevisiae GFP-tagged strains, 3 h
[68] = system: YDR453C; settings: S. cerevisiae GFP-tagged strains, 3 h
[69] = system: YPL220W; settings: S. cerevisiae GFP-tagged strains, 3 h
[70] = system: YML128C; settings: S. cerevisiae GFP-tagged strains, 3 h
[71] = system: YBR248C; settings: S. cerevisiae GFP-tagged strains, 3 h
[72] = system: YPR184W; settings: S. cerevisiae GFP-tagged strains, 3 h
[73] = system: YHR087W; settings: S. cerevisiae GFP-tagged strains, 3 h
[74] = system: YFR053C; settings: S. cerevisiae GFP-tagged strains, 3 h
[75] = system: YBR208C; settings: S. cerevisiae GFP-tagged strains, 3 h
[76] = biological target: General amino acid permease AGP1 (Saccharomyces cerevisiae S288c) (UniProt P25376); settings: S. cerevisiae GFP-tagged strains, 3 h, YCL025C
Chain of General amino acid permease AGP1 (Saccharomyces cerevisiae S288c) (P25376 whole entry, looked up): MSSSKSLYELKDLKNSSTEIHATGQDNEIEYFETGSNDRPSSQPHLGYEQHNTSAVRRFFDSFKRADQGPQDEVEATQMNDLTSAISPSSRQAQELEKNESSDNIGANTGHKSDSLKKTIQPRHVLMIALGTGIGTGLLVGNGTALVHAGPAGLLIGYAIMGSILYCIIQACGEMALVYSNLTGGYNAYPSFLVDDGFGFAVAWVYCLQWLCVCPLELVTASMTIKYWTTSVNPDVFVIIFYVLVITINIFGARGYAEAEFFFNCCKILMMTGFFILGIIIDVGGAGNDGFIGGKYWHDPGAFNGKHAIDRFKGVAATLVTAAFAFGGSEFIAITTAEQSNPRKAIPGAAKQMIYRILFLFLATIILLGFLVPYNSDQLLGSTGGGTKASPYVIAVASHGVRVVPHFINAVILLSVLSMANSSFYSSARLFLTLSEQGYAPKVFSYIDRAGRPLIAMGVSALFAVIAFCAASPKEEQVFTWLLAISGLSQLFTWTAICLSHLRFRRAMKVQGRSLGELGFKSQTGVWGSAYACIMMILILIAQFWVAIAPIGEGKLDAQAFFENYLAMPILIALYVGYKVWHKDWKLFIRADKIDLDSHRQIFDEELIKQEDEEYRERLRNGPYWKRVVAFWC

[77] = system: YLL039C; settings: S. cerevisiae GFP-tagged strains, 3 h
[78] = system: YCR005C; settings: S. cerevisiae GFP-tagged strains, 3 h
[79] = system: YOR038C; settings: S. cerevisiae GFP-tagged strains, 3 h
[80] = system: YCL064C; settings: S. cerevisiae GFP-tagged strains, 3 h
[81] = system: YLL026W; settings: S. cerevisiae GFP-tagged strains, 3 h
[82] = system: YDR399W; settings: S. cerevisiae GFP-tagged strains, 3 h
[83] = system: YOR136W; settings: S. cerevisiae GFP-tagged strains, 3 h
[84] = system: YGL147C; settings: S. cerevisiae GFP-tagged strains, 3 h
[85] = system: YGL036W; settings: S. cerevisiae GFP-tagged strains, 3 h
[86] = system: YHL021C; settings: S. cerevisiae GFP-tagged strains, 3 h
[87] = system: YML004C; settings: S. cerevisiae GFP-tagged strains, 3 h
[88] = system: YGR034W; settings: S. cerevisiae GFP-tagged strains, 3 h
[89] = system: YIL069C; settings: S. cerevisiae GFP-tagged strains, 3 h
[90] = system: YLR287C-A; settings: S. cerevisiae GFP-tagged strains, 3 h
[91] = system: YEL063C; settings: S. cerevisiae GFP-tagged strains, 3 h
[92] = system: YOR375C; settings: S. cerevisiae GFP-tagged strains, 3 h
[93] = system: YJL144W; settings: S. cerevisiae GFP-tagged strains, 3 h
[94] = system: YKR094C; settings: S. cerevisiae GFP-tagged strains, 3 h
[95] = system: YIL051C; settings: S. cerevisiae GFP-tagged strains, 3 h
[96] = system: YGR019W; settings: S. cerevisiae GFP-tagged strains, 3 h

Measured: GFP ratio to DMSO

CNc1nc(N)c([N+](=O)[O-])c(Nc2ccccc2)n1
inactive: [1] 1.01 | [2] 1.14 | [3] 0.896 | [4] 0.942 | [5] 1.17 | [6] 0.892 | [7] 1.09 | [8] 1 | [9] 1.14 | [10] 0.844 | [11] 0.874 | [12] 1.02 | [13] 0.918 | [14] 0.796 | [15] 0.959 | [16] 1.02 | [17] 1.07 | [18] 0.961 | [19] 0.838 | [20] 0.933 | [21] 0.881 | [22] 1.38 | [23] 0.804 | [25] 0.915 | [26] 0.978 | [27] 1.05 | [28] 0.848 | [29] 0.948 | [30] 0.957 | [31] 0.843 | [32] 0.931 | [34] 1.26 | [35] 1.07 | [36] 1.12 | [37] 0.91 | [38] 1.17 | [39] 1.08 | [40] 0.909 | [41] 0.941 | [42] 1.02 | [43] 1.14 | [44] 1.04 | [45] 0.866 | [46] 0.988 | [47] 1.06 | [48] 1.04 | [49] 0.929 | [50] 0.929 | [51] 0.694 | [52] 0.943 | [53] 1.17 | [54] 0.874 | [55] 1.05 | [56] 0.983 | [57] 0.808 | [58] 1.02 | [59] 0.795 | [60] 1.18 | [61] 1.08 | [62] 0.814 | [63] 1.34 | [64] 0.844 | [65] 0.924 | [66] 1.06 | [67] 0.902 | [68] 0.899 | [69] 1.01 | [70] 0.827 | [71] 0.927 | [72] 0.886 | [73] 0.827 | [74] 0.83 | [75] 0.853 | [76] 0.776 | [77] 0.733 | [78] 1.37 | [79] 0.966 | [80] 0.878 | [81] 1 | [82] 0.947 | [83] 1.11 | [84] 1.05 | [85] 0.822 | [86] 1.07 | [87] 0.838 | [88] 1.07 | [89] 1.11 | [90] 1.1 | [91] 1.03 | [92] 1.03 | [93] 0.911 | [94] 1.11 | [95] 0.923 | [96] 0.906
active: [24] 0.519 | [33] 1.66
